Measurements from patent US11939314B2, “Quinolin-2-one derivatives” (MERCK PATENT GMBH, priority 2016, dated 2024).

What was measured:
c-Kit(V654A) = molecular target: T1, c-Kit(V654A) (Homo sapiens, UniProt P10721, V654A); assay: c-Kit(V654A) assay; format: biochemical; conditions: recombinant human c-Kit aa 544-end, 200 μM ATP, 1.4E-06 means 1.4×10^−6, read-out: Inhibition (IC50) of c-KIT (V654A)
T1 construct: amino acids 544-end containing the V654A mutation; GST (N)
Outline: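 Radiometric filter-binding read-out: substrate 33P incorporation counted by scintillation after P30 filtermat washes in 75 mM phosphoric acid and methanol. Enzyme: N-GST recombinant human c-Kit aa 544-end carrying V654A.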

PDGFRalpha(V561D) = molecular target: T2, PDGFRalpha(V561D) (Homo sapiens, UniProt P16234, V561D); assay: PDGFRalpha(V561D) assay; format: biochemical; conditions: recombinant human PDGFRalpha aa 550-end, 200 μM ATP, 1.4E-06 means 1.4×10^−6, read-out: Inhibition (IC50) of PDGFRα (V561D)
T2 construct: recombinant human PDGFRalpha, amino acids 550end containing the V561 D mutation; 6His (N)
Outline: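 Radiometric filter-binding assay: substrate phosphorylation by recombinant N-His-tagged human PDGFRα 550-end V561D was quenched with 3% phosphoric acid after 40 min at room temperature, then counted.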

T1 sequence (P10721 544-976 V654A): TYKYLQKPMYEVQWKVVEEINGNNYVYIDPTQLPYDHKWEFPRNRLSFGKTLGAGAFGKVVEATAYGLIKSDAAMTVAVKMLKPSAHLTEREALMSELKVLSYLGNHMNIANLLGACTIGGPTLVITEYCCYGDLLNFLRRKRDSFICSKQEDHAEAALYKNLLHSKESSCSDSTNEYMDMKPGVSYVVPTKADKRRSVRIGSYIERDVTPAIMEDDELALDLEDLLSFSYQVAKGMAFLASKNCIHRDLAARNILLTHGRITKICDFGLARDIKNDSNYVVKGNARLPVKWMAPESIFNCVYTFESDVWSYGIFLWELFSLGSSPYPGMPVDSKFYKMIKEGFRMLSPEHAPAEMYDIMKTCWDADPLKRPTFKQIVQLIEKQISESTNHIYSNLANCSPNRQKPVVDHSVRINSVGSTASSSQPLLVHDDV
T2 sequence (P16234 550-1089 V561D): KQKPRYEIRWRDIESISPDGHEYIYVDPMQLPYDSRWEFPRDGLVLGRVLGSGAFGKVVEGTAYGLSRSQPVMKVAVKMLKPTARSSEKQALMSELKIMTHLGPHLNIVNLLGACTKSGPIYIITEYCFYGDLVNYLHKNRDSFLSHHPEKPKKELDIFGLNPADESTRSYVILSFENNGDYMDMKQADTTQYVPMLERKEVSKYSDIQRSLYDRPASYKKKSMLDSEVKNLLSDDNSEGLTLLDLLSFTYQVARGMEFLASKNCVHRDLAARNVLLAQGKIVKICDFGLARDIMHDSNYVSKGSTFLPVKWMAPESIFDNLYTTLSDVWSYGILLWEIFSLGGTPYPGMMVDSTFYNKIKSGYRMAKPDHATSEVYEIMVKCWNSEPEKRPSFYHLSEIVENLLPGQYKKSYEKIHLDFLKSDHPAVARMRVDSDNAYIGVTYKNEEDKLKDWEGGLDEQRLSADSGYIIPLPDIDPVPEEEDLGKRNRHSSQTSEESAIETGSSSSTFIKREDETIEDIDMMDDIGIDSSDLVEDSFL

Row | Compound | IC50 (c-Kit(V654A)) | IC50 (PDGFRalpha(V561D))
1 | CO[C@@H]1CN(C(=O)c2ccc(-n3cc(-c4cc5cc(F)ccc5[nH]c4=O)cn3)cc2)C[C@H]1OC [A300, 3-{1-[4-((3R,4R)-3,4-dimethoxy-pyrrolidine-1-carbonyl)-phenyl]-1H-pyrazol-4-yl}-6-fluoro-1H-quinolin-2-one] | 68 nM | 0.76 nM
2 | CO[C@@H]1C[C@@H](CO)N(C(=O)c2ccc(-n3cc(-c4cc5cc(F)ccc5[nH]c4=O)cn3)cc2)C1 [A301, 6-fluoro-3-{1-[4-((2S,4R)-2-hydroxymethyl-4-methoxy-pyrrolidine-1-carbonyl)-phenyl]-1H-pyrazol-4-yl}-1H-quinolin-2-one] | 43 nM | 1 nM
3 | CN(C)C(=O)c1ccc(-n2cc(-c3cc4ccncc4[nH]c3=O)nn2)cc1 [A42, N,N-dimethyl-4-[4-(2-oxo-1,2-dihydro-[1,7]naphthyridin-3-yl)-[1,2,3]triazol-1-yl]-benzamide] | 84 nM | 38 nM
4 | O=C(c1cccc(-n2cc(-c3cc4ccccc4[nH]c3=O)nn2)c1)N1CCNCC1 [A78, 3-{1-[3-(piperazine-1-carbonyl)-phenyl]-1H-[1,2,3]triazol-4-yl}-1H-quinolin-2-one] | 17 nM | 31 nM
5 | CN1CCCN(c2ccc(-n3cc(-c4cc5cc(F)cnc5[nH]c4=O)nn3)cc2)CC1 [A155, 6-fluoro-3-{1-[4-(4-methyl-[1,4]diazepan-1-yl)-phenyl]-1H-[1,2,3]triazol-4-yl}-1H-[1,8]naphthyridin-2-one] | 81 nM | 61 nM
6 | CN1CCN(C(=O)C2CCCN2C(=O)c2ccc(-n3cc(-c4cc5cc(F)ccc5[nH]c4=O)nn3)cc2)CC1 (stereo not drawn) [A281, 6-fluoro-3-(1-{4-[2-(4-methyl-piperazine-1-carbonyl)-pyrrolidine-1-carbonyl]-phenyl}-1H-[1,2,3]triazol-4-yl)-1H-quinolin-2-one] | 57 nM | 10 nM
7 | CN1CCN(C(=O)c2cccc(-n3cc(-c4cc5ccccc5[nH]c4=O)nn3)c2)CC1 [A79, 3-{1-[3-(4-methyl-piperazine-1-carbonyl)-phenyl]-1H-[1,2,3]triazol-4-yl}-1H-quinolin-2-one] | 33 nM | 31 nM
8 | O=C(c1ccc(-n2cc(-c3cc4cc(F)ccc4[nH]c3=O)nn2)cc1)N1CCC(OCCN2CCCC2)C1 (stereo not drawn) [A224, 6-fluoro-3-(1-{4-[3-(2-pyrrolidin-1-yl-ethoxy)-pyrrolidine-1-carbonyl]-phenyl}-1H-[1,2,3]triazol-4-yl)-1H-quinolin-2-one] | 70 nM | 280 nM
9 | CO[C@H]1CCCN(C(=O)c2ccc(-n3cc(-c4cc5cc(F)ccc5[nH]c4=O)nn3)cc2)C1 [A195, 6-fluoro-3-{1-[4-((S)-3-methoxy-piperidine-1-carbonyl)-phenyl]-1H-[1,2,3]triazol-4-yl}-1H-quinolin-2-one] | 68 nM | 93 nM
10 | CN1CCC(N(C)C(=O)c2ccc(-n3cc(-c4cc5ccccc5[nH]c4=O)nn3)cc2)CC1 [A59, N-methyl-N-(1-methyl-piperidin-4-yl)-4-[4-(2-oxo-1,2-dihydro-quinolin-3-yl)-[1,2,3]triazol-1-yl]-benzamide] | 76 nM | 46 nM
11 | CN(C)C(=O)c1ccc(-n2cc(-c3cc4ccccc4[nH]c3=O)nn2)cc1 [A4, N,N-dimethyl-4-[4-(2-oxo-1,2-dihydro-quinolin-3-yl)-[1,2,3]triazol-1-yl]-benzamide] | 34 nM | 19 nM
12 | O=C(c1ccc(-n2cc(-c3cc4cc(Cl)ccc4[nH]c3=O)nn2)cc1)N1CCC2(CC1)COC2 [A256, 6-chloro-3-{1-[4-(2-oxa-7-aza-spiro[3.5]nonane-7-carbonyl)-phenyl]-1H-[1,2,3]triazol-4-yl}-1H-quinolin-2-one] | 27 nM | 4.3 nM
13 | CN1CCN(C(=O)c2ccc(-n3cc(-c4cc5ccccc5[nH]c4=O)nn3)cc2)CC1 [A57, 3-{1-[4-(4-methyl-piperazine-1-carbonyl)-phenyl]-1H-[1,2,3]triazol-4-yl}-1H-quinolin-2-one] | 15 nM | 6 nM
14 | CN(C)CCc1ccc(-n2cc(-c3cc4cc(F)c(F)cc4[nH]c3=O)nn2)cc1 [A115, 3-{1-[4-(2-dimethylamino-ethyl)-phenyl]-1H-[1,2,3]triazol-4-yl}-6,7-difluoro-1H-quinolin-2-one] | 180 nM | 1400 nM
15 | O=c1[nH]c2ccc(F)cc2cc1-c1cn(-c2ccc(OCCC3CCNCC3)cc2)nn1 [A133, 6-fluoro-3-{1-[4-(2-piperidin-4-yl-ethoxy)-phenyl]-1H-[1,2,3]triazol-4-yl}-1H-quinolin-2-one] | 11 nM | 6.4 nM
16 | COCCO[C@@H]1CCN(C(=O)c2ccc(-n3cc(-c4cc5cc(F)ccc5[nH]c4=O)cn3)cc2)C1 [A261, 6-fluoro-3-(1-{4-[(R)-3-(2-methoxy-ethoxy)-pyrrolidine-1-carbonyl]-phenyl}-1H-pyrazol-4-yl)-1H-quinolin-2-one] | 44 nM | 37 nM
17 | CC(=O)N(C)c1ccc(-n2cc(-c3cc4cc(F)c(F)cc4[nH]c3=O)nn2)cc1 [A352, N-{4-[4-(6,7-difluoro-2-oxo-1,2-dihydro-quinolin-3-yl)-[1,2,3]triazol-1-yl]-phenyl}-N-methyl-acetamide] | 260 nM | 440 nM
18 | COC[C@@H]1CC[C@@H](COC)N1C(=O)c1ccc(-n2cc(-c3cc4cc(F)ccc4[nH]c3=O)nn2)cc1 [A217, 3-{1-[4-((2S,5S)-2,5-bis-methoxymethyl-pyrrolidine-1-carbonyl)-phenyl]-1H-[1,2,3]triazol-4-yl}-6-fluoro-1H-quinolin-2-one] | 350 nM | 46 nM
19 | COC(=O)c1cc(-n2cc(-c3cc4ccccc4[nH]c3=O)nn2)ccn1 [A17, 4-[4-(2-oxo-1,2-dihydro-quinolin-3-yl)-[1,2,3]triazol-1-yl]-pyridine-2-carboxylic acid methyl ester] | 290 nM | 67 nM
20 | CN(C)C[C@H]1CCCN1C(=O)c1ccc(-n2cc(-c3cc4cc(F)c(F)cc4[nH]c3=O)nn2)cc1 [A320, 3-{1-[4-((R)-2-dimethylaminomethyl-pyrrolidine-1-carbonyl)-phenyl]-1H-[1,2,3]triazol-4-yl}-6,7-difluoro-1H-quinolin-2-one] | 48 nM | 99 nM
21 | CN1CCN(C(=O)c2ccc(-n3cc(-c4cc5cc(Cl)ccc5[nH]c4=O)nn3)cc2)CC1 [A151, 6-chloro-3-{1-[4-(4-methyl-piperazine-1-carbonyl)-phenyl]-1H-[1,2,3]triazol-4-yl}-1H-quinolin-2-one] | 3 nM | 1 nM
22 | O=C(c1ccc(-n2cc(-c3cc4cc(F)ccc4[nH]c3=O)nn2)cc1)N1CCC(CO)C1 (stereo not drawn) [A206, 6-fluoro-3-{1-[4-(3-hydroxymethyl-pyrrolidine-1-carbonyl)-phenyl]-1H-[1,2,3]triazol-4-yl}-1H-quinolin-2-one] | 24 nM | 48 nM
23 | O=C(c1ccc(-n2cc(-c3cc4cc(F)c(F)cc4[nH]c3=O)nn2)cc1)N1CCNCC1 [A128, 6,7-difluoro-3-{1-[4-(piperazine-1-carbonyl)-phenyl]-1H-[1,2,3]triazol-4-yl}-1H-quinolin-2-one] | 41 nM | 9.7 nM
24 | NC(=O)[C@H]1CCCN1C(=O)c1ccc(-n2cc(-c3cc4cc(F)ccc4[nH]c3=O)nn2)cc1 [A262, (R)-1-{4-[4-(6-fluoro-2-oxo-1,2-dihydro-quinolin-3-yl)-[1,2,3]triazol-1-yl]-benzoyl}-pyrrolidine-2-carboxylic acid amide] | 94 nM | 110 nM
